Measured values taken from PubChem BioAssay AID216 (DTP/NCI, 2004).
Several values for one entry are separate records, joined by “and”; a condition that tells them apart may be missing. Equal entries are not always repeated. Inconclusive results and toxic doses are left out.

Tested on: BDF1 mice, P288 leukemia ip, survival T/C
Test: NCI In Vivo Anticancer Drug Screen. Data for tumor model P288 Lymphocytic Leukemia (intraperitoneal) in B6D2F1 (BDF1) mice
Conditions: endpoint: survival time, mean or median, higher = longer survival
Experimental: The antitumor activity of compounds was measured in mice bearing transplantable tumors. Survival or tumor size were measured and the results are expressed as the measurement made in the treated group (T) divided by the measurement made in the vehicle treated control group (C). The tumor model used in this assay is P288 Lymphocytic Leukemia (intraperitoneal) in B6D2F1 (BDF1) mice

[1] = dose: 0.5 mg/kg/injection, schedule: Q01DX010 (ip), vehicle: saline
[2] = dose: 2.0 mg/kg/injection, schedule: Q01DX010 (ip), vehicle: saline
[3] = dose: 6.0 mg/kg/injection, schedule: Q01DX010 (ip), vehicle: saline
[4] = dose: 12.0 mg/kg/injection, schedule: Q01DX010 (ip), vehicle: saline
[5] = dose: 25.0 mg/kg/injection, schedule: Q01DX010 (ip), vehicle: saline
[6] = dose: 50.0 mg/kg/injection, schedule: Q01DX010 (ip), vehicle: saline
[7] = dose: 100.0 mg/kg/injection, schedule: Q01DX010 (ip), vehicle: saline
[8] = dose: 200.0 mg/kg/injection, schedule: Q01DX010 (ip), vehicle: saline
[9] = dose: 400.0 mg/kg/injection, schedule: Q01DX010 (ip), vehicle: saline
[10] = dose: 6.25 mg/kg/injection, schedule: Q01DX010 (ip), vehicle: saline
[11] = dose: 12.5 mg/kg/injection, schedule: Q01DX010 (ip), vehicle: saline
[12] = dose: 31.3 mg/kg/injection, schedule: Q01DX010 (ip), vehicle: saline
[13] = dose: 62.5 mg/kg/injection, schedule: Q01DX010 (ip), vehicle: saline
[14] = dose: 3.1 mg/kg/injection, schedule: Q01DX Z (ip), vehicle: carboxymethylcellulose (CMC)
[15] = dose: 6.25 mg/kg/injection, schedule: Q01DX Z (ip), vehicle: carboxymethylcellulose (CMC)

Q: Which T/C (dose: 5.0 mg/kg/injection, schedule: Q01DX Z (ip), vehicle: carboxymethylcellulose (CMC)) does the source give for `O=c1cn[nH]c(=O)[nH]1` here?
A: 113 % of control

Q: And the T/C (dose: 10.0 mg/kg/injection, schedule: Q01DX Z (ip), vehicle: carboxymethylcellulose (CMC))?
A: 101 % of control

Q: What about the T/C (dose: 20.0 mg/kg/injection, schedule: Q01DX Z (ip), vehicle: carboxymethylcellulose (CMC)) of the same molecule?
A: 113 % of control

Q: What about the T/C (dose: 125.0 mg/kg/injection, schedule: Q01DX Z (ip), vehicle: carboxymethylcellulose (CMC)) of the same molecule?
A: 104 % of control

Q: What about the T/C (dose: 250.0 mg/kg/injection, schedule: Q01DX Z (ip), vehicle: carboxymethylcellulose (CMC)) of the same molecule?
A: 108 % of control and 93 % of control

Q: What about the T/C (dose: 500.0 mg/kg/injection, schedule: Q01DX Z (ip), vehicle: carboxymethylcellulose (CMC)) of the same molecule?
A: 106 % of control

Q: And the T/C (dose: 1000.0 mg/kg/injection, schedule: Q01DX Z (ip), vehicle: carboxymethylcellulose (CMC))?
A: 118 % of control

Q: What does the source list for `NC(=O)N(CCCl)N=O`?
A: T/C [1]: 205 % of control; T/C (dose: 1.0 mg/kg/injection, schedule: Q01DX010 (ip), vehicle: saline): 222 % of control; T/C (dose: 1.0 mg/kg/injection, schedule: Q01DX Z (ip), vehicle: carboxymethylcellulose (CMC)): 105 % of control; T/C [2]: 166 % of control; T/C (dose: 2.0 mg/kg/injection, schedule: Q01DX Z (ip), vehicle: carboxymethylcellulose (CMC)): 98 % of control; T/C (dose: 4.0 mg/kg/injection, schedule: Q01DX Z (ip), vehicle: carboxymethylcellulose (CMC)): 104 % of control; T/C (dose: 8.0 mg/kg/injection, schedule: Q01DX Z (ip), vehicle: carboxymethylcellulose (CMC)): 152 % of control and 210 % of control

Q: Which T/C (dose: 62.5 mg/kg/injection, schedule: Q01DX010 (sc), vehicle: steriod suspending solution) does the source give for `C=C1C[C@H]2[C@@H]3C=C(C)C4=CC(=O)CC[C@]4(C)[C@H]3CC[C@]2(C)[C@@]1(OC(C)=O)C(C)=O` here?
A: 88 % of control

Q: And the T/C (dose: 125.0 mg/kg/injection, schedule: Q01DX010 (sc), vehicle: steriod suspending solution)?
A: 94 % of control

Q: What does the source list for `N=C(N)c1ccc(Nc2ccc(C(=N)N)cc2)cc1`?
A: T/C (dose: 1.6 mg/kg/injection, schedule: Q01DX Z (ip), vehicle: methylcellulose (MC)): 86 % of control; T/C (dose: 3.0 mg/kg/injection, schedule: Q01DX010 (ip), vehicle: saline): 100 % of control; T/C [3]: 106 % of control; T/C (dose: 6.25 mg/kg/injection, schedule: Q01DX Z (ip), vehicle: methylcellulose (MC)): 88 % of control; T/C (dose: 6.3 mg/kg/injection, schedule: Q01DX Z (ip), vehicle: methylcellulose (MC)): 90 % of control; T/C [4]: 100 % of control; T/C (dose: 12.5 mg/kg/injection, schedule: Q01DX Z (ip), vehicle: methylcellulose (MC)): 115 % of control; T/C (dose: 24.0 mg/kg/injection, schedule: Q01DX010 (ip), vehicle: saline): 87 % of control; T/C (dose: 25.0 mg/kg/injection, schedule: Q01DX Z (ip), vehicle: methylcellulose (MC)): 87 % of control

Q: For `CS(=O)(=O)OCCN(CCOS(C)(=O)=O)c1ccc(N=O)cc1`, which T/C [1] is on record?
A: 121 % of control

Q: What about the T/C [2] of the same molecule?
A: 90 % of control and 94 % of control

Q: `Nc1c(I)cc(I)cc1C(=O)O` was tested. Which T/C [5] did it give?
A: 100 % of control

Q: What about the T/C [6] of the same molecule?
A: 112 % of control and 100 % of control

Q: What about the T/C [7] of the same molecule?
A: 112 % of control and 100 % of control

Q: And the T/C [8]?
A: 100 % of control

Q: What about the T/C [9] of the same molecule?
A: 106 % of control

Q: Which T/C (dose: 1.0 mg/kg/injection, schedule: Q01DX Z (ip), vehicle: saline) does the source give for `O=NN(CCCl)C(=O)NCCCl` here?
A: 121 % of control

Q: And the T/C (dose: 2.0 mg/kg/injection, schedule: Q01DX Z (ip), vehicle: saline)?
A: 117 % of control

Q: What about the T/C [10] of the same molecule?
A: 193 % of control and 428 % of control

Q: What about the T/C [11] of the same molecule?
A: 150 % of control and 192 % of control

Q: What about the T/C (dose: 16.0 mg/kg/injection, schedule: Q01DX Z (ip), vehicle: saline) of the same molecule?
A: 203 % of control

Q: What about the T/C [5] of the same molecule?
A: 106 % of control and 121 % of control

Q: And the T/C (dose: 32.0 mg/kg/injection, schedule: Q01DX Z (ip), vehicle: saline)?
A: 263 % of control

Q: What about the T/C [6] of the same molecule?
A: 87 % of control

Q: What about the T/C (dose: 64.0 mg/kg/injection, schedule: Q01DX Z (ip), vehicle: saline) of the same molecule?
A: 101 % of control

Q: For `O=C(Nc1ccc(C2=NCCCN2)cc1)c1ccc(C(=O)Nc2ccc(C3=NCCCN3)cc2)cc1`, which T/C (dose: 0.2 mg/kg/injection, schedule: Q01DX Z (ip), vehicle: water) is on record?
A: 100 % of control

Q: And the T/C (dose: 0.4 mg/kg/injection, schedule: Q01DX Z (ip), vehicle: water)?
A: 109 % of control

Q: What about the T/C (dose: 0.5 mg/kg/injection, schedule: Q01DX010 (ip), vehicle: other) of the same molecule?
A: 116 % of control and 120 % of control

Q: What about the T/C (dose: 1.0 mg/kg/injection, schedule: Q01DX010 (ip), vehicle: other) of the same molecule?
A: 150 % of control

Q: What about the T/C (dose: 1.6 mg/kg/injection, schedule: Q01DX Z (ip), vehicle: water) of the same molecule?
A: 177 % of control

Q: What about the T/C (dose: 2.0 mg/kg/injection, schedule: Q01DX010 (ip), vehicle: other) of the same molecule?
A: 192 % of control and 216 % of control

Q: What about the T/C (dose: 3.1 mg/kg/injection, schedule: Q01DX Z (ip), vehicle: water) of the same molecule?
A: 273 % of control

Q: What about the T/C (dose: 4.0 mg/kg/injection, schedule: Q01DX010 (ip), vehicle: other) of the same molecule?
A: 164 % of control and 212 % of control

Q: What about the T/C (dose: 8.0 mg/kg/injection, schedule: Q01DX010 (ip), vehicle: other) of the same molecule?
A: 91 % of control

Q: With `Nc1c(Br)cc2c(c1Br)Cc1cc([N+](=O)[O-])ccc1-2` as the molecule, how does the T/C (dose: 15.6 mg/kg/injection, schedule: Q01DX010 (ip), vehicle: saline) read?
A: 122 % of control

Q: And the T/C [12]?
A: 116 % of control

Q: What about the T/C [13] of the same molecule?
A: 111 % of control and 116 % of control

Q: And the T/C (dose: 125.0 mg/kg/injection, schedule: Q01DX010 (ip), vehicle: saline)?
A: 116 % of control and 94 % of control

Q: What about the T/C (dose: 500.0 mg/kg/injection, schedule: Q01DX010 (ip), vehicle: saline) of the same molecule?
A: 88 % of control

Q: With `O=C(Nc1ccc(C2=NCCN2)cc1)c1ccc(C(=O)Nc2ccc(C3=NCCN3)cc2)c([N+](=O)[O-])c1` as the molecule, how does the T/C [3] read?
A: 155 % of control and 175 % of control

Q: What about the T/C (dose: 8.0 mg/kg/injection, schedule: Q01DX010 (ip), vehicle: saline) of the same molecule?
A: 188 % of control and 262 % of control

Q: What about the T/C [4] of the same molecule?
A: 333 % of control and 375 % of control

Q: What about the T/C (dose: 18.0 mg/kg/injection, schedule: Q01DX010 (ip), vehicle: saline) of the same molecule?
A: 187 % of control

Q: Which results are given for `CC(=O)Nc1ccc2nc3ccc(NC(C)=O)cc3[n+](-c3ccccc3)c2c1`?
A: T/C [14]: 115 % of control; T/C [15]: 113 % of control; T/C [5]: 112 % of control; T/C [6]: 112 % of control and 95 % of control; T/C [7]: 95 % of control; T/C [8]: 90 % of control; T/C [9]: 100 % of control; T/C (dose: 400.0 mg/kg/injection, schedule: Q01DX Z (ip), vehicle: carboxymethylcellulose (CMC)): 162 % of control

Q: `C[N+](C)(C)c1ncnc2nc[nH]c12` was tested. Which T/C (dose: 0.4 mg/kg/injection, schedule: Q01DX Z (ip), vehicle: carboxymethylcellulose (CMC)) did it give?
A: 98 % of control

Q: What about the T/C (dose: 0.8 mg/kg/injection, schedule: Q01DX Z (ip), vehicle: carboxymethylcellulose (CMC)) of the same molecule?
A: 94 % of control

Q: And the T/C (dose: 1.6 mg/kg/injection, schedule: Q01DX Z (ip), vehicle: carboxymethylcellulose (CMC))?
A: 98 % of control

Q: And the T/C [14]?
A: 98 % of control

Q: What about the T/C (dose: 15.0 mg/kg/injection, schedule: Q01DX010 (ip), vehicle: saline) of the same molecule?
A: 88 % of control and 100 % of control

Q: What about the T/C (dose: 30.0 mg/kg/injection, schedule: Q01DX010 (ip), vehicle: saline) of the same molecule?
A: 100 % of control

Q: What about the T/C (dose: 60.0 mg/kg/injection, schedule: Q01DX010 (ip), vehicle: saline) of the same molecule?
A: 100 % of control

Q: And the T/C (dose: 120.0 mg/kg/injection, schedule: Q01DX010 (ip), vehicle: saline)?
A: 100 % of control

Q: What does the source list for `O=C(O)CCCc1ccc(N(CCCl)CCCl)cc1`?
A: T/C [14]: 110 % of control; T/C (dose: 3.13 mg/kg/injection, schedule: Q01DX010 (ip), vehicle: saline): 88 % of control; T/C [10]: 100 % of control; T/C [15]: 90 % of control; T/C [11]: 100 % of control; T/C (dose: 12.5 mg/kg/injection, schedule: Q01DX Z (ip), vehicle: carboxymethylcellulose (CMC)): 106 % of control; T/C (dose: 25.0 mg/kg/injection, schedule: Q01DX Z (ip), vehicle: carboxymethylcellulose (CMC)): 114 % of control and 88 % of control

Q: With `CC(=O)Nc1ccc(/C=N/Nc2ccc([N+](=O)[O-])cn2)cc1` as the molecule, how does the T/C [12] read?
A: 89 % of control

Q: And the T/C [13]?
A: 89 % of control

Q: What about the T/C (dose: 250.0 mg/kg/injection, schedule: Q01DX010 (ip), vehicle: saline) of the same molecule?
A: 89 % of control
